Experimental data taken from patent US20150344540A1, “NOVEL GLP-1 RECEPTOR AGONISTS WITH CHOLESTEROL EFFLUX ACTIVITY” (NOVO NORDISK A/S, priority 2012, published 2015).
Where a SMILES comes first, the peptide text is derived from it. [ ]: non-standard residue; d: D form. Aib = CC(C)(N)C(=O)O

Tested on: Mouse monocyte/macrophage cell line, RAW 264.7
Assay: Cholesterol efflux assay (3H-cholesterol, macrophage cell line)
Format: cell-based
Details: RAW 264.7, 4 hrs incubation, 0.1% human serum albumin; for 4 h Cholesterol Efflux Emax: ABCA1-mediated efflux

CC[C@H](C)[C@H](NC(=O)[C@H](Cc1ccccc1)NC(=O)[C@H](CCC(=O)O)NC(=O)[C@H](CCCNC(=N)N)NC(=O)[C@@H](NC(=O)[C@H](C)NC(=O)[C@H](CCC(=O)O)NC(=O)[C@H](CCC(=O)O)NC(=O)[C@H](CCC(=O)O)NC(=O)[C@H](CCSC)NC(=O)[C@H](CCC(N)=O)NC(=O)[C@H](CCCCN)NC(=O)[C@H](CO)NC(=O)[C@H](CC(C)C)NC(=O)[C@H](CC(=O)O)NC(=O)[C@H](CO)NC(=O)[C@@H](NC(=O)[C@H](Cc1ccccc1)NC(=O)[C@@H](NC(=O)CNC(=O)[C@H](CCC(=O)O)NC(=O)C(C)(C)NC(=O)[C@@H](N)Cc1c[nH]cn1)[C@@H](C)O)[C@@H](C)O)C(C)C)C(=O)N[C@@H](CCC(=O)O)C(=O)N[C@@H](Cc1c[nH]c2ccccc12)C(=O)N[C@@H](CC(C)C)C(=O)N[C@@H](CCCCN)C(=O)N[C@@H](CC(N)=O)C(=O)N[C@@H](CCCCN)C(=O)NC(C)(C)C(=O)N[C@@H](CC(C)C)C(=O)N[C@@H](CCC(=O)O)C(=O)N[C@@H](Cc1ccccc1)C(=O)N[C@@H](CC(C)C)C(=O)N[C@@H](CCC(=O)O)C(=O)N[C@@H](CC(C)C)C(=O)N[C@@H](CC(C)C)C(N)=O [Compound 29, [Aib2,Glu21,Lys29,Aib30,Leu31,Glu32,Phe33,Leu34,Glu35,Leu36,Leu371-Exendin-4-(1-37)-peptide amide]
4 h Cholesterol Efflux Emax: 81%

CC[C@H](C)[C@H](NC(=O)[C@H](Cc1ccccc1)NC(=O)[C@H](CCC(=O)O)NC(=O)[C@H](CCCNC(=N)N)NC(=O)[C@@H](NC(=O)[C@H](C)NC(=O)[C@H](CCC(=O)O)NC(=O)[C@H](CCC(=O)O)NC(=O)[C@H](CCC(=O)O)NC(=O)[C@H](CCSC)NC(=O)[C@H](CCC(N)=O)NC(=O)[C@H](CCCCN)NC(=O)[C@H](CO)NC(=O)[C@H](CC(C)C)NC(=O)[C@H](CC(=O)O)NC(=O)[C@H](CO)NC(=O)[C@@H](NC(=O)[C@H](Cc1ccccc1)NC(=O)[C@@H](NC(=O)CNC(=O)[C@H](CCC(=O)O)NC(=O)C(C)(C)NC(=O)[C@@H](N)Cc1c[nH]cn1)[C@@H](C)O)[C@@H](C)O)C(C)C)C(=O)N[C@@H](CCC(=O)O)C(=O)N[C@@H](Cc1c[nH]c2ccccc12)C(=O)N[C@@H](CC(C)C)C(=O)N[C@@H](CCCCN)C(=O)N[C@@H](CC(N)=O)C(=O)N[C@@H](CCCCN)C(=O)NCC(=O)N[C@@H](CC(C)C)C(=O)N[C@@H](CCC(=O)O)C(=O)N[C@@H](Cc1ccccc1)C(=O)N[C@@H](CC(C)C)C(=O)N[C@@H](CCC(=O)O)C(=O)N[C@@H](CC(C)C)C(=O)N[C@@H](CC(C)C)C(N)=O [Compound 33, [Aib2,Glu21,Lys29,Leu31,Glu32,Phe33,Leu34,Glu35,Leu36,Leu371-Exendin-4-(1-37)-peptide amide] (H-H[Aib]EGTFTSDLSKQMEEEAVREFIEWLKNKGLEFLELL-NH2; N-terminus assumed)
4 h Cholesterol Efflux Emax: 87%

CC[C@H](C)[C@H](NC(=O)[C@H](Cc1ccccc1)NC(=O)[C@H](CCC(=O)O)NC(=O)[C@H](CCCNC(=N)N)NC(=O)[C@@H](NC(=O)[C@H](C)NC(=O)[C@H](CCC(=O)O)NC(=O)[C@H](CCC(=O)O)NC(=O)[C@H](CCC(=O)O)NC(=O)[C@H](CCSC)NC(=O)[C@H](CCC(N)=O)NC(=O)[C@H](CCCCN)NC(=O)[C@H](CO)NC(=O)[C@H](CC(C)C)NC(=O)[C@H](CC(=O)O)NC(=O)[C@H](CO)NC(=O)[C@@H](NC(=O)[C@H](Cc1ccccc1)NC(=O)[C@@H](NC(=O)CNC(=O)[C@H](CCC(=O)O)NC(=O)C(C)(C)NC(=O)[C@@H](N)Cc1c[nH]cn1)[C@@H](C)O)[C@@H](C)O)C(C)C)C(=O)N[C@@H](CCC(=O)O)C(=O)N[C@@H](Cc1c[nH]c2ccccc12)C(=O)N[C@@H](CC(C)C)C(=O)N[C@@H](CCCCN)C(=O)N[C@@H](CC(N)=O)C(=O)N[C@@H](CCCCN)C(=O)NC(C)(C)C(=O)N[C@@H](CC(C)C)C(=O)N[C@@H](CO)C(=O)N[C@@H](Cc1ccccc1)C(=O)N[C@@H](CC(C)C)C(=O)N[C@@H](CCC(=O)O)C(=O)N[C@@H](CC(C)C)C(=O)N[C@@H](CC(C)C)C(N)=O [Compound 36, [Aib2,Glu21,Lys29,Aib30,Leu31,Phe33,Leu34,Glu35,Leu36,Leu371-Exendin-4-(1-37)-peptide amide] (H-H[Aib]EGTFTSDLSKQMEEEAVREFIEWLKNK[Aib]LSFLELL-NH2; N-terminus assumed)
4 h Cholesterol Efflux Emax: 95%

CC[C@H](C)[C@H](NC(=O)[C@H](Cc1ccccc1)NC(=O)[C@H](CCC(=O)O)NC(=O)[C@H](CCCNC(=N)N)NC(=O)[C@@H](NC(=O)[C@H](C)NC(=O)[C@H](CCC(=O)O)NC(=O)[C@H](CCC(=O)O)NC(=O)[C@H](CCC(=O)O)NC(=O)[C@H](CCSC)NC(=O)[C@H](CCC(N)=O)NC(=O)[C@H](CCCCN)NC(=O)[C@H](CO)NC(=O)[C@H](CC(C)C)NC(=O)[C@H](CC(=O)O)NC(=O)[C@H](CO)NC(=O)[C@@H](NC(=O)[C@H](Cc1ccccc1)NC(=O)[C@@H](NC(=O)CNC(=O)[C@H](CCC(=O)O)NC(=O)C(C)(C)NC(=O)[C@@H](N)Cc1c[nH]cn1)[C@@H](C)O)[C@@H](C)O)C(C)C)C(=O)N[C@@H](CCC(=O)O)C(=O)N[C@@H](Cc1c[nH]c2ccccc12)C(=O)N[C@@H](CC(C)C)C(=O)N[C@@H](CCCCN)C(=O)N[C@@H](CC(N)=O)C(=O)N[C@@H](CCCCN)C(=O)NC(C)(C)C(=O)N[C@@H](CC(C)C)C(=O)N[C@@H](CCC(=O)O)C(=O)N[C@@H](Cc1ccccc1)C(=O)N[C@@H](CC(C)C)C(=O)N[C@@H](C)C(=O)N[C@@H](CC(C)C)C(=O)N[C@@H](CC(C)C)C(N)=O [Compound 41, [Aib2,Glu21,Lys29,Aib30,Leu31,Glu32,Phe33,Leu34,Leu36,Leu371-Exendin-4-(1-37)-peptide amide] (H-H[Aib]EGTFTSDLSKQMEEEAVREFIEWLKNK[Aib]LEFLALL-NH2; N-terminus assumed)
4 h Cholesterol Efflux Emax: 98%

CC[C@H](C)[C@H](NC(=O)[C@H](Cc1ccccc1)NC(=O)[C@H](CCC(=O)O)NC(=O)[C@H](CCCNC(=N)N)NC(=O)[C@@H](NC(=O)[C@H](C)NC(=O)[C@H](CCC(=O)O)NC(=O)[C@H](CCC(=O)O)NC(=O)[C@H](CCC(=O)O)NC(=O)[C@H](CCSC)NC(=O)[C@H](CCC(N)=O)NC(=O)[C@H](CCCCN)NC(=O)[C@H](CO)NC(=O)[C@H](CC(C)C)NC(=O)[C@H](CC(=O)O)NC(=O)[C@H](CO)NC(=O)[C@@H](NC(=O)[C@H](Cc1ccccc1)NC(=O)[C@@H](NC(=O)CNC(=O)[C@H](CCC(=O)O)NC(=O)C(C)(C)NC(=O)[C@@H](N)Cc1c[nH]cn1)[C@@H](C)O)[C@@H](C)O)C(C)C)C(=O)N[C@@H](CCC(=O)O)C(=O)N[C@@H](Cc1c[nH]c2ccccc12)C(=O)N[C@@H](CC(C)C)C(=O)N[C@@H](CCCCN)C(=O)N[C@@H](CC(N)=O)C(=O)N[C@@H](CCCCN)C(=O)NC(C)(C)C(=O)N[C@@H](CC(C)C)C(=O)N[C@@H](CCC(=O)O)C(=O)N[C@@H](Cc1ccccc1)C(=O)N[C@@H](CC(C)C)C(N)=O [Compound 42, [Aib2,Glu21, Lvs29,Aib30,Leu31,Glu32,Phe33,Leu34]-Exendin-4-(1-34)-peptide amide] (H-H[Aib]EGTFTSDLSKQMEEEAVREFIEWLKNK[Aib]LEFL-NH2; N-terminus assumed)
4 h Cholesterol Efflux Emax: 105%

CC[C@H](C)[C@H](NC(=O)[C@H](Cc1ccccc1)NC(=O)[C@H](CCC(=O)O)NC(=O)[C@H](CCCCN)NC(=O)[C@H](C)NC(=O)[C@H](C)NC(=O)[C@H](CCC(N)=O)NC(=O)CNC(=O)[C@H](CCC(=O)O)NC(=O)[C@H](CC(C)C)NC(=O)[C@H](Cc1ccc(O)cc1)NC(=O)[C@H](CO)NC(=O)[C@H](CO)NC(=O)[C@@H](NC(=O)[C@H](CC(=O)O)NC(=O)[C@H](CO)NC(=O)[C@@H](NC(=O)[C@H](Cc1ccccc1)NC(=O)[C@@H](NC(=O)CNC(=O)[C@H](CCC(=O)O)NC(=O)C(C)(C)NC(=O)[C@@H](N)Cc1c[nH]cn1)[C@@H](C)O)[C@@H](C)O)C(C)C)C(=O)N[C@@H](C)C(=O)N[C@@H](Cc1c[nH]c2ccccc12)C(=O)N[C@@H](CC(C)C)C(=O)N[C@H](C(=O)N[C@@H](CCCCN)C(=O)N[C@@H](CCCCN)C(=O)NC(C)(C)C(=O)N[C@@H](CCCCN)C(=O)N[C@@H](CCC(=O)O)C(=O)N[C@@H](Cc1ccccc1)C(=O)N[C@@H](CC(C)C)C(N)=O)C(C)C [Compound 47, [Aib8,Lys35,Aib36,Lys37]-GLP-1-(7-37)-peptidyl-Glu-Phe-Leu amide]
4 h Cholesterol Efflux Emax: 55%

CC[C@H](C)[C@H](NC(=O)[C@H](Cc1ccccc1)NC(=O)[C@H](CCCCN)NC(=O)[C@H](CCCCN)NC(=O)[C@@H](NC(=O)[C@H](C)NC(=O)[C@H](CCC(=O)O)NC(=O)CNC(=O)[C@H](CCC(=O)O)NC(=O)[C@H](CC(C)C)NC(=O)[C@H](Cc1ccc(O)cc1)NC(=O)[C@H](CO)NC(=O)[C@H](CO)NC(=O)[C@@H](NC(=O)[C@H](CC(=O)O)NC(=O)[C@H](CO)NC(=O)[C@@H](NC(=O)[C@H](Cc1ccccc1)NC(=O)[C@@H](NC(=O)CNC(=O)[C@H](CCC(=O)O)NC(=O)C(C)(C)NC(=O)[C@@H](N)Cc1c[nH]cn1)[C@@H](C)O)[C@@H](C)O)C(C)C)C(C)C)C(=O)N[C@@H](C)C(=O)N[C@@H](Cc1c[nH]c2ccccc12)C(=O)N[C@@H](CC(C)C)C(=O)N[C@H](C(=O)N[C@@H](CCC(=O)O)C(=O)N[C@@H](CCCCN)C(=O)NC(C)(C)C(=O)N[C@@H](CCCCN)C(=O)N[C@@H](CCC(=O)O)C(=O)N[C@@H](Cc1ccccc1)C(=O)N[C@@H](CC(C)C)C(N)=O)C(C)C [Compound 51, [Aib8,Glu23,Val25,Lys27,Glu34,Lys35,Aib36,Lys37]-GLP-1-(7-37)-peptidyl-Glu-Phe-Leu amide] (H-H[Aib]EGTFTSDVSSYLEGEAVKKFIAWLVEK[Aib]KEFL-NH2; N-terminus assumed)
4 h Cholesterol Efflux Emax: 117% | EC50 (read-out: 4 h Cholesterol Efflux EC50, ABCA1-mediated efflux (CPT-cAMP induced minus non-induced)): 440 nM
